In patent US20110052612A1, “SPIROPIPERIDINE COMPOUND AND MEDICINAL USE THEREOF” (ONO PHARMACEUTICAL CO., LTD., priority 2005, published 2011):

Biological target: T1, human CXCR3 (Homo sapiens, UniProt P49682)
T1 construct: expressed in transfected cells
T1 sequence (P49682 1-368): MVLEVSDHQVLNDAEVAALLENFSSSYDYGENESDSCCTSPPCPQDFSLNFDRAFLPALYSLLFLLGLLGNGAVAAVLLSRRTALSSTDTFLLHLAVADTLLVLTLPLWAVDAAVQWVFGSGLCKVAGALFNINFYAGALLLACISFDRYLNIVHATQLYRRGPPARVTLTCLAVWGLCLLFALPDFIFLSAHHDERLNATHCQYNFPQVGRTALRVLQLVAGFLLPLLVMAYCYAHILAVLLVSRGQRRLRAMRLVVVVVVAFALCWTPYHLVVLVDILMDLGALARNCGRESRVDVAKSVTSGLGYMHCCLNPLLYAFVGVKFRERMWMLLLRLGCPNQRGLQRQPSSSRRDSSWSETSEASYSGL
Assay: Inhibition of IP-10-induced transient Ca2+ rise in CXCR3/CHO cells
Assay type: cell-based
Details: human IP-10 30 nM
Procedure: An Inhibitory Experiment Against the Binding of IP-10 and CXCR3 (the Activity of that Ca Ion (Ca^2+) is Raised in Transient and Induced by IP-10)
The CHO cell (CXCR3/CHO cell) which overexpresses human CXCR3 in stable was suspended with Ham's F-12 culture medium and FBS (10%), was rolled up in 96well plate to become 3.0×10^4 cell/well. After the plate was incubated for one day at 37° C., removed the cultural supernatant, added Ham's F-12 culture media (Fura-2AM (5 μM), Probenecid (2.5 mM) and HEPES (20 mM; pH7.4) were included) to 80 μl/well, incubated for one hour at 37° C. in light exclusion state. […] The transient rise of the intracellular Ca^2+ concentration induced by human IP-10 was measured by means of Ca^2+ detector for 96well (made in Hamamatsu Photonics), and the inhibitory rate (%) of the test compound was calculated by the following calculation formula.
Ec: The measured value of the Ca^2+ transient rise induced by IP-10 Ea: The measured value of the Ca^2+ transient rise induced by IP-10 when a test compound was added

First: CCCN1C(=O)N(CCc2ccccc2)C=CC12CCN(Cc1ccc(Cl)cc1)CC2 [Example 9, 9-(4-chlorobenzyl)-3-(2-phenylethyl)-1-propyl-1,3,9-triazaspiro[5.5]undec-4-en-2-one]
Second: O=C1C(Cc2ccccc2)CCC2(CCN(Cc3ccc(Cl)cc3)CC2)N1CC1CC1 (stereo not shown) [Example 15, 3-benzyl-9-(4-chlorobenzyl)-1-(cyclopropylmethyl)-1,9-diazaspiro[5.5]undecan-2-one]
The IC50 of the first is 3.1-fold higher: 3.4 µM for the first, 1.1 µM for the second.

Going from `CCCCN1CCC2(CCN(Cc3ccc(Cl)cc3)CC2)N(C2CCCC2)C1=O` [Example 11, 3-butyl-9-(4-chlorobenzyl)-1-cyclopentyl-1,3,9-triazaspiro[5.5]undecan-2-one] to `C#CCOc1ccc(CN2CCC3(CCCCC3)CC2)cc1` [Example 5, 3-[4-(prop-2-yn-1-yloxy)benzyl]-3-azaspiro[5.5]undecane], the IC50 rises from 2.1 µM to 3.2 µM (1.5-fold). The first is the more potent here.
